Assay results reported in PubChem BioAssay AID2060885 (Molecular Pharmacology Branch, DTP, NCI, 2025).

Tested on: NCI-H23 complex spheroids with HUVEC/MSC, viability
Experiment: Anticancer human tumor NCI-H23 cell line growth inhibition [RAS];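 note: spheroids exposed to compound for 7 days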;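 for viability, T/C: 100% = DMSO vehicle control viability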
Settings: for IC50: curve of first compound; for viability, T/C: stronger effect = lower value; active = viability on the fitted dose curve at most 10% of control; inactive = the rest
Method in brief: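 Tumour cells grown as complex spheroids with HUVEC endothelial cells and mesenchymal stem cells, treated with RAS pathway inhibitor combinations. Each agent spans half-log steps from near clinical Cmax, or 10 microM where Cmax is unknown.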

[1] = second compound 0.00316 µM, first compound 0.0316 µM
[2] = second compound 0.00316 µM, first compound 0.1 µM
[3] = second compound 0.00316 µM, first compound 0.316 µM
[4] = second compound 0.00316 µM, first compound 1 µM
[5] = second compound 0.01 µM, first compound 0.0316 µM
[6] = second compound 0.01 µM, first compound 0.1 µM
[7] = second compound 0.01 µM, first compound 0.316 µM
[8] = second compound 0.01 µM, first compound 1 µM
[9] = second compound 0.0316 µM, first compound 0.0316 µM
[10] = second compound 0.0316 µM, first compound 0.1 µM
[11] = second compound 0.0316 µM, first compound 0.316 µM
[12] = second compound 0.0316 µM, first compound 1 µM
[13] = second compound 0.1 µM, first compound 0.0316 µM
[14] = second compound 0.1 µM, first compound 0.1 µM
[15] = second compound 0.1 µM, first compound 0.316 µM
[16] = second compound 0.1 µM, first compound 1 µM
[17] = second compound 0.316 µM, first compound 0.0316 µM
[18] = second compound 0.316 µM, first compound 0.1 µM
[19] = second compound 0.316 µM, first compound 0.316 µM
[20] = second compound 0.316 µM, first compound 1 µM
[21] = second compound 1 µM, first compound 0.0316 µM
[22] = second compound 1 µM, first compound 0.1 µM
[23] = second compound 1 µM, first compound 0.316 µM
[24] = second compound 1 µM, first compound 1 µM

CCC(CC)c1cc(NC2CCC(N)C2)n2nccc2n1 (centres undefined) + C=CC(=O)N1CCN(c2nc(OCC3CCCN3C)nc3c(F)c(-c4nc(N)cc(C)c4C(F)(F)F)c(Cl)cc23)C(C)C1
557 nM: IC50 (second compound 0.01 µM)
inactive: viability, T/C [1] 64.8% | viability, T/C [2] 75.2% | viability, T/C [3] 57.1% | viability, T/C [4] 51.4% | viability, T/C [5] 52.7% | viability, T/C [6] 62.7% | viability, T/C [7] 55.2% | viability, T/C [8] 43.2% | viability, T/C [9] 44.7% | viability, T/C [10] 47.1% | viability, T/C [11] 42.9% | viability, T/C [12] 36.5% | viability, T/C [13] 39.3% | viability, T/C [14] 50.3% | viability, T/C [15] 38.7% | viability, T/C [16] 36.5% | viability, T/C [17] 36.2% | viability, T/C [18] 37.8% | viability, T/C [19] 39.9% | viability, T/C [20] 36.7% | viability, T/C (second compound 0.316 µM, first compound 3.16 µM) 4.1% | viability, T/C [21] 34.6% | viability, T/C [22] 42.8% | viability, T/C [23] 41.1% | viability, T/C [24] 38.5% | viability, T/C (second compound 1 µM, first compound 3.16 µM) 4.68%
< 31.6 nM: IC50 (second compound 0.0316 µM) | IC50 (second compound 0.1 µM) | IC50 (second compound 0.316 µM) | IC50 (second compound 1 µM)
active: viability, T/C (second compound 0.00316 µM, first compound 3.16 µM) 5.05% | viability, T/C (second compound 0.00316 µM, first compound 10 µM) 0.45% | viability, T/C (second compound 0.01 µM, first compound 3.16 µM) 4.13% | viability, T/C (second compound 0.01 µM, first compound 10 µM) 0.6% | viability, T/C (second compound 0.0316 µM, first compound 3.16 µM) 3.39% | viability, T/C (second compound 0.0316 µM, first compound 10 µM) 0.5% | viability, T/C (second compound 0.1 µM, first compound 3.16 µM) 2.7% | viability, T/C (second compound 0.1 µM, first compound 10 µM) 0.48% | viability, T/C (second compound 0.316 µM, first compound 10 µM) 0.41% | viability, T/C (second compound 1 µM, first compound 10 µM) 0.53%
1010 nM: IC50 (second compound 0.00316 µM)

CCN1CCN(Cc2ccc(Nc3ncc(F)c(-c4cc(F)c5nc(C)n(C(C)C)c5c4)n3)nc2)CC1 + C=CC(=O)N1CCN(c2nc(OCC3CCCN3C)nc3c(F)c(-c4nc(N)cc(C)c4C(F)(F)F)c(Cl)cc23)C(C)C1
< 3.16 nM: IC50 (second compound 0.0316 µM) | IC50 (second compound 0.1 µM) | IC50 (second compound 0.316 µM) | IC50 (second compound 1 µM)
inactive: viability, T/C (second compound 0.00316 µM, first compound 0.00316 µM) 55.6% | viability, T/C (second compound 0.00316 µM, first compound 0.01 µM) 58.2% | viability, T/C [1] 38.2% | viability, T/C [2] 26.9% | viability, T/C [3] 26.1% | viability, T/C [4] 23.9% | viability, T/C (second compound 0.01 µM, first compound 0.00316 µM) 49.9% | viability, T/C (second compound 0.01 µM, first compound 0.01 µM) 46.7% | viability, T/C [5] 30.1% | viability, T/C [6] 23.6% | viability, T/C [7] 17.4% | viability, T/C [8] 18.6% | viability, T/C (second compound 0.0316 µM, first compound 0.00316 µM) 44.4% | viability, T/C (second compound 0.0316 µM, first compound 0.01 µM) 37.3% | viability, T/C [9] 24.1% | viability, T/C [10] 21.8% | viability, T/C [11] 17.2% | viability, T/C [12] 20.1% | viability, T/C (second compound 0.1 µM, first compound 0.00316 µM) 36.4% | viability, T/C (second compound 0.1 µM, first compound 0.01 µM) 29.3% | viability, T/C [13] 23.2% | viability, T/C [14] 19.4% | viability, T/C [15] 19.4% | viability, T/C [16] 18.3% | viability, T/C (second compound 0.316 µM, first compound 0.00316 µM) 34.3% | viability, T/C (second compound 0.316 µM, first compound 0.01 µM) 31.7% | viability, T/C [17] 21.9% | viability, T/C [18] 20.5% | viability, T/C [19] 16.6% | viability, T/C [20] 17.2% | viability, T/C (second compound 1 µM, first compound 0.00316 µM) 28.7% | viability, T/C (second compound 1 µM, first compound 0.01 µM) 33.8% | viability, T/C [21] 26.2% | viability, T/C [22] 20.1% | viability, T/C [23] 17.8% | viability, T/C [24] 17.1%
3.55 nM: IC50 (second compound 0.01 µM)
15.3 nM: IC50 (second compound 0.00316 µM)
